Results from patent US6479487B1, “6, 9-disubstituted 2-[trans-(4-aminocyclohexyl)amino] purines” (Aventis Pharmaceuticals Inc., priority 1998, dated 2002).
“And” between values parts separate entries of the source, which are not always exact repeats. Identical values can stand only once. Counter-ions that a name gives are not always drawn. Like-named read-outs stand apart in the source and are kept apart here.

Experiments:
cdk2/cyclin E = molecular target: T1, cdk2/cyclin E (Homo sapiens, UniProt P24941); test: Cyclin-Dependent Kinase 2 Assay (cdk2/cyclin E, GST-Rb substrate); format: biochemical; conditions: recombinant cdk2/cyclin E, 10 μM ATP, 30 min at 30° C., several values in a cell = separate determinations, read-out: CDK-2 Inhibition IC50
T1 construct: made in house; host or cells: insect cells (baculovirus co-infection)
Description: Substrate: GST-Rb as described above for cdk4/cyclin D1
Assay conditions for cdk2/cyclin E were identical to those for cdk4/cyclin D1 including the substrate. The concentration of recombinant cdk2/cyclin E in the assay was 0.1 μg per 100 μl assay. Incubation was for 30 min at 30° C.

cdk4/cyclin D1 = molecular target: T2, cdk4/cyclin D1 (Homo sapiens, UniProt P11802); test: Cyclin-dependent Kinase 4 Assay (cdk4/cyclin D1, GST-Rb substrate); format: biochemical; conditions: cdk4/cyclin D1 insect cell lysate, 10 μM ATP, 30 min at 37° C., several values = separate determinations, read-out: CDK4 Inhibition IC50
T2 construct: made in house; host or cells: Sf9 insect cells (Bac-to-Bac baculovirus, pFastBac)
Description: The IC50 values for cdk4 inhibition were by the following method:
The transformed bacteria were grown overnight to saturation, then diluted in YT broth and incubated at 37° C. for 2 h. The protein was induced by incubation with 0.1 mM isopropylthioglycoside for 3 h. Following sedimentation by centrifugation, the cells were lysed by sonication in STE buffer ([…] NaCl, 10 mM Tris, pH 8.0, 1 mM EDTA) containing 10% sarkosyl. Particulate matter was removed by centrifugation and the lysate was incubated with glutathione-Sepharose at 4° C. The beads were washed with kinase buffer and then quantitation of Coomassie blue-stained proteins separated by SDS-PAGE was performed using a protein standard of known concentration.
The cDNA for human cyclin D1 was cloned by RT PCR using […] from MCF-7 cells. […] Bacmid DNA was used to transfect Sf9 insect cells to produce recombinant virus. Following plaque purification of the virus, the viral preparations were amplified until high titer stocks were acheived.
Lysates were prepared by lysis of Sf9 cells coinfected with cdk4 and cyclin D1 in 50 mM HEPES, pH 7.5, 10 mM MgCl2, 1 mM DTT, 0.1 mM phenylmethylsulfonyl fluoride, 5 μg/ml aprotinin, and 5 μg/ml leupeptin using a PARR bomb under 500 p.s.i nitrogen pressure for 5 min at 4° C. Insoluble material was sedimented at 10,000×g for 20 min at 4° C. Glycerol was added to the supernatant to 10% and stored at −80° C. in aliquots.
Pre-wet Millipore Multiscreen 96-well filter plates (0.65 μm Durapore filters) with 200 μl kinase buffer (50 mM HEPES, pH 7.5, 10 mM MgCl2, 1 mM EGTA). GST-Rb (0.5 μg) bound to glutathione-Sepharose beads is added in 50 μl per well and the solution removed by application of vacuum. […] Add 0.1 μg cdk4/cyclin D1 (insect cell lysate) to initiate assay. Incubate 30 min at 37° C. Terminate reaction by filtration on Millipore Vacuum Manifold. Wash four times with TNEN (20 mM Tris, pH 8.0, 100 mM Na Cl, 1 mM EDTA, 0.5% nonidet P-40). After drying the plates at room temperature, the filter plates were placed in adapter plates (Packard) and 40 μl of Microscint-O® (Packard) was added to each well. Top Seal A film was used to cover the plates before counting in a Top Count Scintillation Counter.

MDA-MB-231 = test: In vitro tumor cell proliferation, MDA-MB-231; format: cell-based, human; conditions: sulforhodamine B or CyQUANT assay, many values given with an undefined *, read-out: In vitro Tumor Cell Proliferation (IC50, μM) Breast MDA-MB-231
Description: (§1) The proliferation of tumor cells was measured using a sulforhodamine B assay as described in Skehan, P., et al., J. Natl. Cancer Inst. […] Tumor cells were harvested with trypsin-EDTA, cells that excluded trypan blue were counted, added to 96-well plates and incubated overnight at 37° C. Drug was added to the wells following dilution in culture medium. Three days later, the medium was removed and replenished with medium containing fresh drug and incubated an additional 4 days. The cells were then fixed with 0.1 ml 10% trichloroacetic acid for 60 min at 4° C. The plates were rinsed five times with tap water, air-dried and stained for 30 min with 0.4% sulforhodamine B in 1% acetic acid and air-dried.
(§2) Alternatively, the CyQUANT cell proliferation assay was used to quantitate cell proliferation.
(§3) Alternatively, the CyQUANT cell proliferation assay was used to quantify tumor cell proliferation. Tumor cells were harvested with trypsin-EDTA, cells that excluded trypan blue were counted, added to 96-well plates and incubated overnight at 37° C. Drug was added to the wells following dilution in culture medium. Three days later the medium was removed and the plates frozen at −80° C. for at least 30 minutes.
MDA-MB-23 1 is a human breast adenocarcinoma, hormone-independent (HTB 26);

MDA-MB-435 = test: In vitro tumor cell proliferation, MDA-MB-435; format: cell-based; conditions: values given with an undefined *, read-out: In vitro Tumor Cell Proliferation (IC50, μM) Breast MDA-MB-435
Description: as §1, §2, §3

Colo-205 = test: In vitro tumor cell proliferation, Colo-205; format: cell-based; conditions: values given with an undefined *, read-out: In vitro Tumor Cell Proliferation (IC50, μM) Colon Colo-205
Description: as §1, §2, §3

A549 = test: In vitro tumor cell proliferation, A549; format: cell-based, human; conditions: many values given with an undefined *, read-out: In vitro Tumor Cell Proliferation (IC50, μM) Lung A549
Description: as §1, §2, §3

DMS-114 = test: In vitro tumor cell proliferation, DMS-114; format: cell-based, human; conditions: many values given with an undefined *, read-out: In vitro Tumor Cell Proliferation (IC50, μM) Lung DMS-114
Description: DMS-1 14: human small cell lung carcinoma;
as §1, §2, §3

HT-29 = test: In vitro tumor cell proliferation, HT-29; format: cell-based, human; conditions: many values given with an undefined *, read-out: In vitro Tumor Cell Proliferation (IC50, μM) Colon HT-29
Description: as §1, §2, §3
HT-29 is a human colon adenocarcinoma, moderately well-differentiated grade II (HTB 38);

PC-3 = test: In vitro tumor cell proliferation, PC-3; format: cell-based, human; conditions: many values given with an undefined *, read-out: In vitro Tumor Cell Proliferation (IC50, μM) Prostate PC-3
Description: as §1, §2, §3

DU145 = test: In vitro tumor cell proliferation, DU145; format: cell-based, human; conditions: many values given with an undefined *, read-out: In vitro Tumor Cell Proliferation (IC50, μM) Prostate DU145
Description: as §1, §2, §3

[1] = Homo sapiens, MDA-MB-231, MDA-MB-231
[2] = Homo sapiens, MDA-MB-435, MDA-MB-435
[3] = Homo sapiens, COLO 205, Colo-205

T2 sequence (P11802 whole entry): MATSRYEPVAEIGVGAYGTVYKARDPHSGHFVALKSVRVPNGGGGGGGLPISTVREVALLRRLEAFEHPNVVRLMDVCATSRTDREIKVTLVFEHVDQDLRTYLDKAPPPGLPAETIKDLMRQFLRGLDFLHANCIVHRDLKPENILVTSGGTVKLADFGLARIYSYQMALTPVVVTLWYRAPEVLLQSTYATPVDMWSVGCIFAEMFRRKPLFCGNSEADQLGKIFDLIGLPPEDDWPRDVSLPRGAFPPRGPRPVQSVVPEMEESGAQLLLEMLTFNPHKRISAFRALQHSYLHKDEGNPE
T2 sequence (P24385 whole entry partner): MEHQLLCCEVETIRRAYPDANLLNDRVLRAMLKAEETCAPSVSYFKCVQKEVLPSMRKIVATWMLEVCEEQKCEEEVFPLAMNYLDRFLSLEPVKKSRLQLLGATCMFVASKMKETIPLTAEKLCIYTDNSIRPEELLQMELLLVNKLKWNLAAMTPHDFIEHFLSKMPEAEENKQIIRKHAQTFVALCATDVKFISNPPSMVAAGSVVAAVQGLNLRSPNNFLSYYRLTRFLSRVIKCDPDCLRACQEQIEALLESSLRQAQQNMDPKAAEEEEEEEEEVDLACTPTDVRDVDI

| Structure (SMILES) | IC50 (cdk2/cyclin E) | IC50 (cdk4/cyclin D1) | IC50 (MDA-MB-231; [1]) | IC50 (MDA-MB-435; [2]) | IC50 (Colo-205; Colo-205, dihydrochloride) | IC50 (Colo-205; [3]) | IC50 (A549; Homo sapiens, A549, A549) | IC50 (DMS-114; DMS-114, dihydrochloride) | IC50 (DMS-114; Homo sapiens, DMS-114, DMS-114) | IC50 (MDA-MB-231; MDA-MB-231, dihydrochloride) | IC50 (MDA-MB-435; MDA-MB-435, dihydrochloride) | IC50 (HT-29; HT-29, dihydrochloride) | IC50 (HT-29; Homo sapiens, HT-29, HT-29) | IC50 (PC-3; Homo sapiens, PC-3, PC-3) | IC50 (PC-3; PC-3, dihydrochloride) | IC50 (A549; A549, dihydrochloride) | IC50 (DU145; Homo sapiens, DU-145, DU145) | also measured |
| --- | --- | --- | --- | --- | --- | --- | --- | --- | --- | --- | --- | --- | --- | --- | --- | --- | --- | --- |
| COc1cccc(CCNc2nc(N[C@H]3CC[C@H](N)CC3)nc3c2ncn3C2CCCC2)c1 [Example 27, 2-[Trans-(4-aminocyclohexyl)amino]-6-[2-(3-methoxyphenyl)ethylamino]-9-cyclopentylpurine dihydrochloride] | 130 nM | 1400 nM | 10 µM | 9.3 µM | 4.6 µM | 4.9 µM | 3.1 µM |  | 2.1 µM | 6 µM | 7.2 µM | 5.2 µM | 3.8 µM | 2.6 µM | 3 µM | 1.6 µM |  |  |
| N[C@H]1CC[C@H](Nc2nc(Nc3ccccc3)c3ncn(C4CCCC4)c3n2)CC1 [Example 32, 2-[Trans-(4-aminocyclohexyl)amino]-6-(phenylamino)-9-cyclopentylpurine dihydrochloride] | 54 nM and 25 nM and 27 nM and 14 nM | 1300 nM and 1600 nM | 0.85 µM | 1.59 µM | 1.2 µM | 0.82 µM | 0.37 µM | 0.51 µM | 0.61 µM | 0.68 µM | 1.39 µM | 1.1 µM | 1 µM |  |  | 0.68 µM | 0.39 µM | IC50 (DU145; DU145, dihydrochloride): 0.64 µM |
| N[C@H]1CC[C@H](Nc2nc(NC3CCN(Cc4ccccc4Cl)CC3)c3ncn(C4CCCC4)c3n2)CC1 [Example 43, 2-[Trans-(4-aminocyclohexyl)amino]-6-[4-(1-(2-chlorobenzyl))piperidinylamino]-9-cyclopentylpurine] | 150 nM and 200 nM | 3900 nM and 7700 nM | 0.37 µM | 0.33 µM |  | 0.28 µM | 0.25 µM |  | 0.43 µM |  |  |  |  |  |  |  | 0.3 µM | IC50 (MDA-MB-231; MDA-MB-231): 0.43 µM; IC50 (MDA-MB-435; MDA-MB-435): 0.57 µM; IC50 (Colo-205; Colo-205): 0.23 µM; IC50 (A549; A549): 0.23 µM; IC50 (DMS-114; DMS-114): 0.41 µM; IC50 (DU145; DU145): 0.32 µM |

Continued, in another order:

| IC50 (cdk2/cyclin E) | IC50 (cdk4/cyclin D1) | IC50 (MDA-MB-231; [1]) | IC50 (MDA-MB-435; [2]) | IC50 (Colo-205; Colo-205, dihydrochloride) | IC50 (Colo-205; [3]) | IC50 (A549; Homo sapiens, A549, A549) | IC50 (DMS-114; DMS-114, dihydrochloride) | IC50 (DMS-114; Homo sapiens, DMS-114, DMS-114) | IC50 (MDA-MB-231; MDA-MB-231, dihydrochloride) | IC50 (MDA-MB-435; MDA-MB-435, dihydrochloride) | IC50 (HT-29; HT-29, dihydrochloride) | IC50 (HT-29; Homo sapiens, HT-29, HT-29) | IC50 (PC-3; Homo sapiens, PC-3, PC-3) | IC50 (PC-3; PC-3, dihydrochloride) | IC50 (A549; A549, dihydrochloride) | IC50 (DU145; Homo sapiens, DU-145, DU145) | Structure (SMILES) | also measured |
| --- | --- | --- | --- | --- | --- | --- | --- | --- | --- | --- | --- | --- | --- | --- | --- | --- | --- | --- |
| 540 nM | 20000 nM | 15 µM | 20 µM | 10 µM | 12 µM | 22 µM | 15 µM | 12 µM |  |  |  |  |  |  |  |  | COc1ccc(CNc2nc(N[C@H]3CC[C@H](N)CC3)nc3c2ncn3C(C)C)cc1OC [Example 19, 2-[Trans-(4-aminocyclohexyl)amino]-6-[(3.4-dimethoxybenzyl)amino]-9-(2-propyl)purine dihydrochloride] |  |
| 370 nM | 400 nM and 1300 nM and 570 nM | 4.2 µM | 10 µM | 5.3 µM | 3.9 µM |  | 2.8 µM | 2.7 µM | 8.2 µM | 11 µM | 4.4 µM | 4 µM | 2.5 µM | 2.3 µM |  |  | COCCCNc1nc(N[C@H]2CC[C@H](N)CC2)nc2c1ncn2C1CCCC1 [Example 22, 2-[Trans-(4-aminocyclohexyl)amino]-6-(3-methoxypropylamino)-9-cyclopentylpurine dihydrochloride] |  |
| 110 nM | 530 nM and 520 nM |  | 23 µM | 15 µM |  |  | 15 µM | 17 µM |  | 22 µM | 22 µM |  | 15 µM | 8 µM | 17 µM |  | N[C@H]1CC[C@H](Nc2nc(NCCOCCO)c3ncn(C4CCCC4)c3n2)CC1 [Example 26, 2-[Trans-(4-aminocyclohexyl)amino]-6-(2-hydroxyethoxyethylamino)-9-cyclopentylpurine dihydrochloride] |  |
| 190 nM | 740 nM and 1400 nM and 1100 nM | 1 µM | 2.1 µM |  | 1.5 µM | 0.57 µM |  |  |  |  |  | 1.6 µM | 1.7 µM |  |  | 1.4 µM | N[C@H]1CC[C@H](Nc2nc(NC3CCN(CC4CC4)CC3)c3ncn(C4CCCC4)c3n2)CC1 [Example 52, 2-[Trans-(4-aminocyclohexyl)amino]-6-[4-(1-cyclopropylmethyl)piperidinylamino]-9-cyclopentylpurine] | IC50 (MDA-MB-231; MDA-MB-231): 1.2 µM; IC50 (MDA-MB-435; MDA-MB-435): 2.4 µM; IC50 (HT-29; HT-29): 2 µM; IC50 (Colo-205; Colo-205): 1.1 µM; IC50 (A549; A549): 0.68 µM; IC50 (PC-3; PC-3): 2.1 µM; IC50 (DU145; DU145): 1.5 µM |
